Results reported in publication PMC10177380 (Cancers, 2023).
Several values for one entry are separate records, joined by “and”; a condition that tells them apart may be missing. Equal values may be shown once.

Key:
BE2C neuroblastoma = test: MTT growth inhibition, 72 h, BE2C; type: cell-based; details: BE2C, MTT, 72 h
[1] = system: non-tumour derived MCF10A breast line; test: MTT growth inhibition, 72 h, MCF10A; type: cell-based
[2] = system: ADDP ovarian variant (cisplatin-resistant A2780 clone); test: MTT growth inhibition, 72 h, ADDP; type: cell-based; details: ADDP, MTT, 72 h
A431 skin = test: MTT growth inhibition, 72 h, A431; type: cell-based
HT29 colon cells = test: ROS production, DCFDA/H2DCFDA cellular ROS assay; type: cell-based, human; details: treatment at GI50 concentration (TBHP positive control 20 μM)
Description: To determine the presence of ROS in treated cells, a DCFDA/H2DCFDA-cellular ROS Assay Kit (Abcam, Cambridge, MA, USA) was utilised, as previously reported. The ROS potential of platinum(II) precursors and platinum(IV) scaffolds, which were determined using the same method, were also presented in this study for comparison.
Additionally, the ROS potential of the platinum(II) precursors and platinum(IV) scaffolds was determined previously and was presented here to allow for comparison (Table 10 and Figure 13). […] Treatment with the complexes and ligands was completed at each specific GI50 concentration. […]
dimethylthiazol-2-yl]-2,5-diphenyltetrazolium bromide) assay and absorbance was read at 540 nm. An eight-point dose response curve was produced from which the GI50 value was calculated, representing the drug concentration at which cell growth was inhibited by 50% based on the difference between the optical density values on day 0 and those at the end of drug exposure.
4. Reactive Oxygen Species (ROS) Potential
A total of 25,000 cells/mL of HT29 cells in DMEM were seeded in 96-well plates. Cells were washed with 1X kit buffer, and then stained with 25 μM 2’,7’-dichlorofluorescein diacetate (DCFH-DA) and incubated for 45 min. DCFH-DA was then removed, and cells were then re-washed with 1X kit buffer, after which phenol red free media was added.
Cells were then treated with a GI50 drug concentration for each complex. The plates were directly scanned to measure fluorescence (relative fluorescence units (RFU)) at different time points using the Glo-Max®-Multimode microplate reader (Promega Corporation, Alexandra, VIC, Australia) at an excitation/emission of 485/535 nm. […]

MIA pancreas = test: MTT growth inhibition, 72 h, MIA; type: cell-based
H460 lung = test: MTT growth inhibition, 72 h, H460; type: cell-based
A2780 ovarian = test: MTT growth inhibition, 72 h, A2780; type: cell-based
U87 glioblastoma = test: MTT growth inhibition, 72 h, U87; type: cell-based
multiple cell lines = test: MTT growth inhibition, over all cell lines tested; type: cell-based; details: mean over all cell lines tested; read-out: Mean GI50 Values
[3] = Reduction with ascorbic acid (AsA) in PBS followed by 1H-NMR and 1D-195Pt-NMR; type: physicochemical; details: estimated 100% reduction, PBS in D2O, 37 °C
Description: The reduction behaviour of 1–6 was probed via ^1H-NMR and 1D-^195Pt-NMR spectroscopy, as previously described (see Supplementary Materials).
The reduction behaviour of 1–6 was monitored by ^1H-NMR and 1D-^195Pt-NMR spectroscopy using previously established methods. Prior to the reduction measurements, each metal complex was dissolved with PBS in D2O only.
Based on the initial 1D-^195Pt-NMR spectra acquired (Figures S62 and S63), the structural integrity of the complexes was retained, and no signs of reduction were observed, thus also confirming that the PBS had no effect on the complexes. Subsequently, AsA was added in each solution containing the metal complex, PBS and D2O. Then, sequential ^1H-NMR experiments were undertaken for 1 h, followed by final 1D-^195Pt-NMR experiments measured within the regions of 400 and −2800 ppm (Figures S64–S75). The approximate time points for 1–6 at which an estimated 50 and 100% reduction had occurred, in the presence of AsA, as represented by T50% and T100%, are summarised in Table 8.
A sequence of 1H-NMR experiments was carried out for 1 h at 37 °C, followed by 1D-195Pt-NMR within the regions of –2800 and 400 ppm. An amount of 10 mM PBS (~7.4 pH) was transferred to a vial and reduced to dryness through rotary evaporation. AsA (~1 mg) was combined with the metal complex (~5 mg) and transferred to the vial containing the dried PBS. 600 μL of D2O was then added to the vial to dissolve the complex, AsA and the PBS together. Each reaction was followed at 37 °C until the complete reduction […]
The cell lines tested were: HT29 colon, U87 glioblastoma, MCF-7 breast, A2780 ovarian, H460 lung, A431 skin, Du145 prostate, BE2-C neuroblastoma, SJ-G2 glioblastoma, MIA pancreas, ADDP ovarian variant, and the non-tumour derived MCF10A breast line. In […]
agents were prepared in DMSO (30 mM stock solutions) and stored at −20 °C until use.
All cell lines were cultured in a humidified atmosphere 5% carbon dioxide at 37 °C. The cancer cell lines were maintained in Dulbecco’s modified Eagle’s medium (DMEM) (Trace Biosciences, Sydney, NSW, Australia) supplemented with 10% foetal bovine serum, 10 mM sodium bicarbonate penicillin (100 IU mL−1), streptomycin (100 μg mL−1) and glutamine (4 mM). The non-cancer MCF10A cell line was cultured in DMEM:F12 (1:1) cell culture media, 5% heat inactivated horse serum, supplemented with penicillin (50 IU mL−1), streptomycin (50 μg mL−1), 20 mM 4-(2-hydroxyethyl)-1-piperazineethanesulfonic acid (HEPES), L-glutamine (2 mM), epidermal growth factor (20 ng mL−1), hydrocortisone (500 ng mL−1), cholera toxin (100 ng mL−1) and insulin (10 μg mL−1). Cytotoxicity was determined by plating cells in duplicate in […] medium at a density of 2500 – 4000 cells per well in 96 well plates. On day 0 (24 h after plating) when the cells were in logarithmic growth, 100 μL of medium with or without the test agent

HT29 colon = test: MTT growth inhibition, 72 h, HT29; type: cell-based, human

Question: For `COc1ccc2c(c1)c(CC(=O)OCC(=O)[O][Pt-2]13([OH])([NH2+][C@H]4CCCC[C@@H]4[NH2+]1)[n+]1cccc4c(C)c(C)c5ccc[n+]3c5c41)c(C)n2C(=O)c1ccc(Cl)cc1` [Complex 6, [Pt^IV(5,6-Me2phen)(SS-DACH)(ACE)(OH)]^2+], which GI50 (BE2C neuroblastoma) is on record?
Answer: Its GI50 is 160 ± 19 nM.

Question: What about the GI50 [1] of the same compound?
Answer: Its GI50 is 3.4 ± 1 nM.

Question: And the GI50 [2]?
Answer: The GI50 was 1.3 ± 0.5 nM.

Question: What about the GI50 (A431 skin) of the same compound?
Answer: Its GI50 is 16 ± 12 nM.

Question: And the “ROS Production” value (HT29 colon cells; HT29, 24 h)?
Answer: Its value is 344 ± 17 RFU.

Question: And the “ROS Production” value (HT29 colon cells; HT29, 48 h)?
Answer: The value was 312 ± 13 RFU.

Question: And the “ROS Production” value (HT29 colon cells; HT29, 72 h)?
Answer: The value was 202 RFU and 202 ± 10 RFU.

Question: What about the GI50 (MIA pancreas) of the same compound?
Answer: Its GI50 is 7.8 ± 4 nM.

Question: And the “fold more potent than the platinum(IV) scaffold” value (H460 lung)?
Answer: Its value is about 12 fold.

Question: And the GI50 (H460 lung; H460, MTT, 72 h)?
Answer: Its GI50 is 16 ± 2 nM.

Question: And the GI50 (A2780 ovarian)?
Answer: Its GI50 is 10 ± 4 nM.

Question: And the GI50 (U87 glioblastoma)?
Answer: Its GI50 is 28 ± 3 nM.

Question: And the GI50 (multiple cell lines)?
Answer: The GI50 was 32 ± 7 nM.

Question: What about the “Reduction Times T100%” value [3] of the same compound?
Answer: The value was 5 min.

Question: And the GI50 (HT29 colon)?
Answer: The GI50 was 4.7 ± 4 nM.
